Reference: US9211310B2, “Use of a Chinese medicine composition in preparing medicaments for treating secondary prevention of myocardial infarction” (TASLY PHARMACEUTICAL GROUP CO., LTD, priority 2010, dated 2015)

Test system: patients after acute myocardial infarction
Assay: Life quality, Seattle Angina Questionnaire (SAQ), same clinical trial
Type: in vivo, human
Settings: FAS
From the text: 3508 patients who were in accordance with the diagnostic standards of AMI for 28 days to 2 years and differentiated as Qi deficiency and blood stagnation syndrome by TCM were studied. 0.5 g Chinese medicine composition prepared by the method of EXAMPLE 1 (Coded as QSYQ) was administrated half an hour after meal, 3 times per day.
There were 19 questions in the Seattle angina questionnaire (SAQ), including 5 parts: physical limitation (PL), anginal stability (AS), anginal frequency (AF), treatment satisfaction (TS) and disease perception (DP). After being given necessary explanation by doctors, the questions were answered independently by patients.
They included the overall survival time, angina pectoris score, TCM symptom score and life quality score, where angina pectoris score, TCM symptom score and life quality score were evaluated at randomization, in 1st, 3rd, 6th, 9th, 12th month after treatment and 18th month after follow-up.
All evaluation results of SAQ were described during the period of observation, and Wilcoxon rank sum test was used for inter-group comparison.
The evaluation results in the SAQ were depicted in different observations, and inter-group comparison was tested by Wilcoxon Rank-sum test.

## CC(=O)Oc1ccccc1C(=O)O [Control group, aspirine]
9 months after treatment
  SAQ Question 1-1 Other reasons, percent of patients: (0.17%)
  SAQ Question 1-1 Severely limited, number of patients: 1
  SAQ Question 1-1 Severely limited, percent of patients: (0.06%)
  SAQ Question 1-1 Slightly limited, number of patients: 67
  SAQ Question 1-1 Slightly limited, percent of patients: (3.84%)
  SAQ Question 1-2 Mildly limited, number of patients: 29
  SAQ Question 1-2 Mildly limited, percent of patients: (1.66%)
  SAQ Question 1-2 Moderately limited, number of patients: 7
  SAQ Question 1-2 Moderately limited, percent of patients: (0.40%)
  SAQ Question 1-2 Not limited, number of patients: 1631
  SAQ Question 1-2 Not limited, percent of patients: (93.52%)
  SAQ Question 1-2 Other reasons, number of patients: 5
  SAQ Question 1-2 Other reasons, percent of patients: (0.29%)
  SAQ Question 1-2 Severely limited, number of patients: 0
  SAQ Question 1-2 Severely limited, percent of patients: (0.00%)
  SAQ Question 1-2 Slightly limited, number of patients: 72
  SAQ Question 1-2 Slightly limited, percent of patients: (4.13%)
  SAQ Question 1-6: Mildly limited, patients (%): (15.79%)
  SAQ Question 1-6: Moderately limited, patients (%): (11.08%)
  SAQ Question 1-6: Not limited, patients (%): (37.31%)
  SAQ Question 1-6: Other reasons, patients (%): (0.86%)
  SAQ Question 1-6: Severely limited, patients (%): (2.93%)
  SAQ Question 1-6: Slightly limited, patients (%): (32.03%)
  SAQ Question 1-7: Mildly limited, patients (%): (21.69%)
  SAQ Question 1-7: Moderately limited, patients (%): (11.86%)
  SAQ Question 1-7: Not limited, patients (%): (17.87%)
  SAQ Question 1-7: Other reasons, patients (%): (3.07%)
  SAQ Question 1-7: Severely limited, patients (%): (14.29%)
  SAQ Question 1-7: Slightly limited, patients (%): (31.23%)
  SAQ Question 1-8: Mildly limited, patients (%): (24.55%)
  SAQ Question 1-8: Moderately limited, patients (%): (15.03%)
  SAQ Question 1-8: Not limited, patients (%): (11.96%)
  SAQ Question 1-8: Other limited, patients (%): (3.60%)
  SAQ Question 1-8: Severely limited, patients (%): (17.93%)
  SAQ Question 1-8: Slightly limited, patients (%): (26.93%)
12 months after treatment
  8th question: Dissatisfied, patients (%): (0.29%)
  8th question: Highly satisfied, patients (%): (25.29%)
  8th question: Mostly dissatisfied, patients (%): (2.01%)
  8th question: Mostly satisfied, patients (%): (60.09%)
  8th question: Partly satisfied, patients (%): (12.33%)
  9th question: Few, patients (%): (39.74%)
  9th question: Mild, patients (%): (30.56%)
  9th question: Moderate, patients (%): (6.82%)
  9th question: Severe, patients (%): (0.97%)
  9th question: Uneffective, patients (%): (21.90%)
  10th question: Dissatisfied, patients (%): (19.50%)
  10th question: Highly satisfied, patients (%): (7.57%)
  10th question: Mostly dissatisfied, patients (%): (19.21%)
  10th question: Mostly satisfied, patients (%): (30.85%)
  10th question: Partly dissatisfied, patients (%): (22.88%)
  11th question: Continuously worried, patients (%): (3.15%)
  11th question: No worried, patients (%): (7.11%)
  11th question: Occasionally worried, patients (%): (40.60%)
  11th question: Often worried, patients (%): (9.23%)
  11th question: Seldom worried, patients (%): (39.91%)
  SAQ 4th question, 1-2 times per week: % of patients: (10.61%)
  SAQ 4th question, 1-2 times per week: number of patients: 185
  SAQ 4th question, 1-3 times per week: % of patients: (4.24%)
  SAQ 4th question, 1-3 times per week: number of patients: 74
  SAQ 4th question, <1 time per week: % of patients: (16.51%)
  SAQ 4th question, <1 time per week: number of patients: 288
  SAQ 4th question, Not used: % of patients: (64.56%)
  SAQ 4th question, Not used: number of patients: 1126
  SAQ 4th question, ≧3 times per week: % of patients: (3.96%)
  SAQ 4th question, ≧3 times per week: number of patients: 69
  SAQ 4th question, ≧4 times per day: % of patients: (0.11%)
  SAQ 4th question, ≧4 times per day: number of patients: 2
  SAQ 5th question, 1-2 times per week: % of patients: (32.00%)
  SAQ 5th question, 1-2 times per week: number of patients: 558
  SAQ 5th question, 1-3 times per day: % of patients: (6.14%)
  SAQ 5th question, 1-3 times per day: number of patients: 107
  SAQ 5th question, <1 time per week: % of patients: (29.93%)
  SAQ 5th question, <1 time per week: number of patients: 522
  SAQ 5th question, No onset: % of patients: (5.28%)
  SAQ 5th question, No onset: number of patients: 92
  SAQ 5th question, ≧3 times per week: % of patients: (25.86%)
  SAQ 5th question, ≧3 times per week: number of patients: 451
  SAQ 5th question, ≧4 times per day: % of patients: (0.80%)
  SAQ 5th question, ≧4 times per day: number of patients: 14
  SAQ 6th question, Dissatisfied: % of patients: (0.29%)
  SAQ 6th question, Dissatisfied: number of patients: 5
  SAQ 6th question, Highly satisfied: % of patients: (25.86%)
  SAQ 6th question, Highly satisfied: number of patients: 451
  SAQ 6th question, Mostly dissatisfied: % of patients: (1.55%)
  SAQ 6th question, Mostly dissatisfied: number of patients: 27
  SAQ 6th question, Mostly satisfied: % of patients: (60.61%)
  SAQ 6th question, Mostly satisfied: number of patients: 1057
  SAQ 6th question, Partly satisfied: % of patients: (11.70%)
  SAQ 6th question, Partly satisfied: number of patients: 204
  SAQ 7th question, Dissatisfied: % of patients: (0.11%)
  SAQ 7th question, Dissatisfied: number of patients: 2
  SAQ 7th question, Highly satisfied: % of patients: (29.56%)
  SAQ 7th question, Highly satisfied: number of patients: 515
  SAQ 7th question, Mostly dissatisfied: % of patients: (0.75%)
  SAQ 7th question, Mostly dissatisfied: number of patients: 13
  SAQ 7th question, Mostly satisfied: % of patients: (59.82%)
  SAQ 7th question, Mostly satisfied: number of patients: 1042
  SAQ 7th question, Partly satisfied: % of patients: (9.76%)
  SAQ 7th question, Partly satisfied: number of patients: 170
  SAQ Question 1-1 Mildly limited, number of patients: 15
  SAQ Question 1-1 Mildly limited, percent of patients: (0.86%)
  SAQ Question 1-1 Moderately limited, number of patients: 4
  SAQ Question 1-1 Moderately limited, percent of patients: (0.23%)
  SAQ Question 1-1 Not limited, number of patients: 1659
  SAQ Question 1-1 Not limited, percent of patients: (95.13%)
  SAQ Question 1-1 Other reasons, number of patients: 4
  SAQ Question 1-1 Other reasons, percent of patients: (0.23%)
  SAQ Question 1-1 Severely limited, number of patients: 1
  SAQ Question 1-1 Severely limited, percent of patients: (0.06%)
  SAQ Question 1-1 Slightly limited, number of patients: 61
  SAQ Question 1-1 Slightly limited, percent of patients: (3.50%)
  SAQ Question 1-2 Mildly limited, number of patients: 18
  SAQ Question 1-2 Mildly limited, percent of patients: (1.03%)
  SAQ Question 1-2 Moderately limited, number of patients: 6
  SAQ Question 1-2 Moderately limited, percent of patients: (0.34%)
  SAQ Question 1-2 Not limited, number of patients: 1647
  SAQ Question 1-2 Not limited, percent of patients: (94.44%)
  SAQ Question 1-2 Other reasons, number of patients: 6
  SAQ Question 1-2 Other reasons, percent of patients: (0.34%)
  SAQ Question 1-2 Severely limited, number of patients: 0
  SAQ Question 1-2 Severely limited, percent of patients: (0.00%)
  SAQ Question 1-2 Slightly limited, number of patients: 67
  SAQ Question 1-2 Slightly limited, percent of patients: (3.84%)
  SAQ Question 1-6: Mildly limited, patients (%): (14.93%)
  SAQ Question 1-6: Moderately limited, patients (%): (9.70%)
  SAQ Question 1-6: Not limited, patients (%): (40.47%)
  SAQ Question 1-6: Other reasons, patients (%): (0.86%)
  SAQ Question 1-6: Severely limited, patients (%): (2.58%)
  SAQ Question 1-6: Slightly limited, patients (%): (31.46%)
  SAQ Question 1-7: Mildly limited, patients (%): (20.46%)
  SAQ Question 1-7: Moderately limited, patients (%): (11.10%)
  SAQ Question 1-7: Not limited, patients (%): (20.46%)
  SAQ Question 1-7: Other limited, patients (%): (3.29%)
  SAQ Question 1-7: Severely limited, patients (%): (12.95%)
  SAQ Question 1-7: Slightly limited, patients (%): (31.73%)
  SAQ Question 1-8: Mildly limited, patients (%): (24.72%)
  SAQ Question 1-8: Moderately limited, patients (%): (13.35%)
  SAQ Question 1-8: Not limited, patients (%): (13.64%)
  SAQ Question 1-8: Other reasons, patients (%): (3.95%)
  SAQ Question 1-8: Severely limited, patients (%): (16.89%)
  SAQ Question 1-8: Slightly limited, patients (%): (27.45%)
Baseline
  8th question: Dissatisfied, patients (%): (0.92%)
  8th question: Highly satisfied, patients (%): (15.62%)
  8th question: Mostly dissatisfied, patients (%): (6.55%)
  8th question: Mostly satisfied, patients (%): (46.01%)
  8th question: Partly satisfied, patients (%): (30.90%)
  9th question: Few, patients (%): (21.02%)
  9th question: Mild, patients (%): (36.70%)
  9th question: Moderate, patients (%): (26.88%)
  9th question: Severe, patients (%): (3.62%)
  9th question: Uneffective, patients (%): (11.77%)
  10th question: Dissatisfied, patients (%): (25.90%)
  10th question: Highly satisfied, patients (%): (2.30%)
  10th question: Mostly dissatisfied, patients (%): (23.72%)
